Values joined by “and” are separate entries in the source; they are usually repeats but may differ in a detail not shown here. Identical values can stand only once. One block for each compound: values may come before it.
Test system: 454973-116-R2-J3-PDC spheroids, viability, % test/control
Assay: Anticancer human tumor 454973-116-R2-J3-PDC patient-derived pancreatic carcinoma cell line growth inhibition [GQUAD]
Settings: spheroids with HUVEC and MSC; for viability, T/C: stronger effect = lower value
Source text: DNA G-quadruplex Stabilizer Agents in Combinations in Complex Spheroids
A high-throughput screen of multi-cell type tumor spheroids was designed to identify active combinations of DNA G-quadruplex stabilizer agents and targeted small molecules. Complex spheroids include a stromal component modeled by human endothelial cells (HUVEC) and fibroblasts modeled by human mesenchymal stem cells (MSCs). The concentration ranges selected for each drug and investigational agent were based upon clinically achievable concentrations if the clinical Cmax of the agent was known.
Compounds. The drugs and investigational agents: pidnarulex (CX-5461; NSC782164), APTO-253 (NSC789042), BRACO-19 (NSC847499), peposertib (NSC802822), ceralasertib (NSC780249), elimusertib (NSC800525), camonsertib (NSC841442), AZD-1390 (NSC803789), olaparib (NSC753686), talazoparib (NSC767125), ART-558 (NSC835418), sotorasib (NSC818433), MRTX-1133 (NSC836407), SN-38 (NSC673596), topotecan (NSC609699), etoposide (NSC141540), doxorubicin (NSC123127), gemcitabine (NSC613327), 5-fluorouracil (NSC19893), paclitaxel (NSC125973), vemurafenib (NSC761431), panobinostat (NSC761190), R-306465 (JNJ-16241199; NSC773264), adavosertib (NSC754352), TP-3654 (NSC805149), carboplatin (NSC241240), KSQ-4279 (NSC840948), and staurosporine (NSC755774) were obtained from the National Cancer Institute (NCI) Developmental Therapeutics Program Chemical Repository (34). The FDA-approved anticancer drug set is available from the NCI Developmental Therapeutics Program. […] The stock solutions were prepared in dimethyl sulfoxide (DMSO, Sigma-Aldrich, St. Louis, MO, cat. D2650) at 800-fold the tested concentration and stored at -70 degrees C prior to their use. All drugs and investigational agents were tested over a range starting from a high concentration at or near the clinical Cmax and decreasing in half-log increments. If the clinical Cmax for an agent had not been determined, the highest concentration tested was 10 microM.
2.3 Cell Culture. All cells were maintained in an incubator at 37 degrees C and 5% CO2 with 95% humidity. The PDC lines were cultured according to standard operating procedures established by the NCI PDMR. All PDCs were thawed and cultured in Matrigel-coated flasks prepared with a working solution of 1X Ham's F-12 nutrient mix, without supplementation (Invitrogen, cat. 11765054), 100 U/mL penicillin-streptomycin (Invitrogen, cat. 15140122), and 2.5% Matrigel (Corning Inc., cat. 354248) for the first three passages. The 857933-349-R-J2-PDC line was cultured in 6C/Colon 1B media, which includes advanced DMEM/F-12 (Thermo Fisher Scientific, cat. 12634028), 10 mM HEPES (Thermo Fisher Scientific, cat. 15630080), 1X GlutaMAX supplement (Thermo Fisher Scientific, cat. 35050061), 0.1 mg/mL primocin (InvivoGen, cat. ant-pm-2), 10% defined fetal bovine serum, heat inactivated (HyClone Laboratories Inc., cat. SH30070.03HI), 50% L-WRN conditioned media (ATCC, cat. CRL-3276), 1.25 mM N-Acetyl-L-cysteine (Sigma-Aldrich, cat. A9165), 10 mM nicotinamide (Sigma-Aldrich, cat. N0636), 1X B-27 supplement (Thermo Fisher Scientific, cat. 17504044), 1X N-2 supplement (Thermo Fisher Scientific, cat. 17502048), 10 microM Y-27632 dihydrochloride (Tocris Bioscience, cat. 1254), and 50 ng/mL human EGF recombinant protein (Thermo Fisher Scientific, cat. PHG0311). The 485176-168-R4-J1-PDC line was cultured in Panc media, which includes all 6C/Colon 1B media components plus 100 ng/mL human FGF-10 (Thermo Fisher Scientific, cat. 100-26), 500 nM SB-431542 (Selleckchem, cat. S1067), and gastrin (Tocris, cat. 3006).
[…]
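Also: spheroids exposed to compounds for seven days.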

Structure (SMILES): COc1cc(C2c3cc4c(cc3C(OC3OC5COC(C)OC5C(O)C3O)C3COC(=O)C23)OCO4)cc(OC)c1O (stereo not given) + CN(C)c1ccc(Nc2c3ccc(NC(=O)CCN4CCCC4)cc3nc3cc(NC(=O)CCN4CCCC4)ccc23)cc1
IC50 (curve of first compound, second compound 0.0316 µM): 1240 nM
IC50 (curve of first compound, second compound 0.1 µM): 1270 nM
IC50 (curve of first compound, second compound 0.316 µM): 1090 nM
IC50 (curve of first compound, second compound 1 µM): 790 nM
IC50 (curve of first compound, second compound 3.16 µM): 749 nM
IC50 (curve of first compound, second compound 10 µM): 821 nM
viability, T/C (second compound 0.0316 µM, first compound 0.0316 µM): 102%
viability, T/C (second compound 0.0316 µM, first compound 0.1 µM): 95.6%
viability, T/C (second compound 0.0316 µM, first compound 0.316 µM): 87.9%
viability, T/C (second compound 0.0316 µM, first compound 1 µM): 55.1%
viability, T/C (second compound 0.0316 µM, first compound 3.16 µM): 25.9%
viability, T/C (second compound 0.0316 µM, first compound 10 µM): 15%
viability, T/C (second compound 0.1 µM, first compound 0.0316 µM): 106%
viability, T/C (second compound 0.1 µM, first compound 0.1 µM): 98.7%
viability, T/C (second compound 0.1 µM, first compound 0.316 µM): 89.1%
viability, T/C (second compound 0.1 µM, first compound 1 µM): 58.8%
viability, T/C (second compound 0.1 µM, first compound 3.16 µM): 21.3%
viability, T/C (second compound 0.1 µM, first compound 10 µM): 15.3%
viability, T/C (second compound 0.316 µM, first compound 0.0316 µM): 97.3%
viability, T/C (second compound 0.316 µM, first compound 0.1 µM): 98.7%
viability, T/C (second compound 0.316 µM, first compound 0.316 µM): 78.8%
viability, T/C (second compound 0.316 µM, first compound 1 µM): 51.8%
viability, T/C (second compound 0.316 µM, first compound 3.16 µM): 27.2%
viability, T/C (second compound 0.316 µM, first compound 10 µM): 14.3%
viability, T/C (second compound 1 µM, first compound 0.0316 µM): 105%
viability, T/C (second compound 1 µM, first compound 0.1 µM): 89.1%
viability, T/C (second compound 1 µM, first compound 0.316 µM): 78%
viability, T/C (second compound 1 µM, first compound 1 µM): 39.4%
viability, T/C (second compound 1 µM, first compound 3.16 µM): 28.7%
viability, T/C (second compound 1 µM, first compound 10 µM): 15.7%
viability, T/C (second compound 3.16 µM, first compound 0.0316 µM): 89.2%
viability, T/C (second compound 3.16 µM, first compound 0.1 µM): 88.7%
viability, T/C (second compound 3.16 µM, first compound 0.316 µM): 80.5%
viability, T/C (second compound 3.16 µM, first compound 1 µM): 38.5%
viability, T/C (second compound 3.16 µM, first compound 3.16 µM): 31.6%
viability, T/C (second compound 3.16 µM, first compound 10 µM): 16.3%
viability, T/C (second compound 10 µM, first compound 0.0316 µM): 79.2%
viability, T/C (second compound 10 µM, first compound 0.1 µM): 71.3%
viability, T/C (second compound 10 µM, first compound 0.316 µM): 66.2%
viability, T/C (second compound 10 µM, first compound 1 µM): 45.5%
viability, T/C (second compound 10 µM, first compound 3.16 µM): 31.8%
viability, T/C (second compound 10 µM, first compound 10 µM): 20.9%

Structure (SMILES): COc1ncnc(C2CC2)c1-c1ncc2cnn(Cc3ccc(-c4nc(C(F)(F)F)cn4C(C)C)cc3)c2n1
viability, T/C (compound 0.0316 µM): 93.7% and 116% and 113%
viability, T/C (compound 0.1 µM): 103% (2×) and 110%
viability, T/C (compound 0.316 µM): 94.6% and 105% and 101%
viability, T/C (compound 1 µM): 94.7% and 98.2% and 94.5%
viability, T/C (compound 3.16 µM): 114% and 109% and 97.9%
viability, T/C (compound 10 µM): 99.9% and 102% (2×)
IC50 (curve of compound): > 10000 nM

Continued, in another order:

IC50 (curve of compound): 45.6 nM and 44.2 nM and 42.7 nM
Structure (SMILES): CC[C@@]1(O)C(=O)OCc2c1cc1n(c2=O)Cc2cc3c(CN(C)C)c(O)ccc3nc2-1
viability, T/C (compound 0.000999 µM): 104% (2×) and 105%
viability, T/C (compound 0.00316 µM): 108% and 109% and 101%
viability, T/C (compound 0.00999 µM): 97.4% and 95.7% and 98.8%
viability, T/C (compound 0.0316 µM): 63.9% and 62.8% and 59.8%
viability, T/C (compound 0.0999 µM): 18.8% and 18.6% and 21.4%
viability, T/C (compound 0.316 µM): 22% and 21.9% and 23.2%

IC50 (curve of compound): > 10000 nM and 7770 nM
Structure (SMILES): COc1ccc([C@@H](O)c2cc(-c3ncnc4cc(N5CCOCC5)ccc34)c(F)cc2Cl)nn1
viability, T/C (compound 0.0316 µM): 110% and 102% and 111%
viability, T/C (compound 0.1 µM): 94.2% and 93% and 93.8%
viability, T/C (compound 0.316 µM): 103% and 91.3% and 98.6%
viability, T/C (compound 1 µM): 89% and 93.2% and 84%
viability, T/C (compound 3.16 µM): 76.2% and 71.4% and 65%
viability, T/C (compound 10 µM): 50.3% and 57.7% and 45.4%

IC50 (compound alone, run of 04/22/2024): > 10000 nM
Structure (SMILES): CN(C)c1ccc(Nc2c3ccc(NC(=O)CCN4CCCC4)cc3nc3cc(NC(=O)CCN4CCCC4)ccc23)cc1
viability, T/C (compound 0.0316 µM): 107% [middle of 12 runs]
viability, T/C (compound 0.1 µM): 106% [middle of 12 runs]
viability, T/C (compound 0.316 µM): 103% [middle of 12 runs]
viability, T/C (compound 1 µM): 98.5% [middle of 12 runs]
viability, T/C (compound 3.16 µM): 94.8% [middle of 12 runs]
viability, T/C (compound 10 µM): 74% [middle of 12 runs]
